Assay results published in patent US8772266B2, “Fungicide pyrazole carboxamides derivates” (Bayer Cropscience AG, priority 2009, dated 2014).

Experiments:
Aspergillus parasiticus = assay: microbe, parasite or virus in culture; format: cell-based; details: 168 h, 50 μM of active ingredient, 7 days, fluorescence, read-out: inhibition of aflatoxines production
[1] = logP by HPLC on reversed-phase column (EEC Directive 79/831 Annex V.A8)
Sphaerotheca fuliginea = assay: In vivo preventive test on Sphaerotheca fuliginea (cucumber), Example G; details: 10 ppm of active ingredient, evaluated 7 days after inoculation
Text: After the spray coating has dried on, the plants are inoculated with an aqueous spore suspension of Sphaerotheca fuliginea.

Fusarium nivale = assay: In vivo curative test on Fusarium nivale (wheat); details: 500 ppm of active ingredient, evaluated 8 days after inoculation
Puccinia triticina = assay: In vivo curative test on Puccinia triticina (wheat); details: 500 ppm of active ingredient, evaluated 8 days after inoculation
Meloidogyne incognita = assay: Test on Meloidogyne incognita; format: in vivo; details: 20 ppm of active ingredient; after 14 days
Procedure: Solvent: 80.0 parts by weight of acetone
Vessels are filled with sand, a solution of the active ingredient, a suspension containing eggs and larvae of Meloidogyne incognita and salad seeds. The salad seeds germinate and the seedlings grow. Galls develop in the roots.
After 14 days the nematicidal activity is determined on the basis of the percentage of gall formation. 100% means that no galls were found; 0% means that the number of galls found on the roots of the treated plants was equal to that in untreated control plants.

Tetranychus urticae = assay: Spray application test on Tetranychus urticae; format: in vivo; details: 500 g of active ingredient/ha; after 6 days
Procedure: Solvent: 78.0 parts by weight acetone • 1.5 parts by weight dimethylformamide
Emulsifier: 0.5 parts by weight alkylarylpolyglcolether
French beans (Phaseolus vulgaris) which are heavily infested with all stages of the two spotted spidermite (Tetranychus urticae), are sprayed with a preparation of the active ingredient at the desired concentration.
After 6 days, mortality in % is determined. 100% means that all spider mites have been killed and 0% means that none of the spider mites have been killed.

Fusarium proliferatum = assay: Inhibition of Fumonisin FB1 produced by Fusarium proliferatum; format: cell-based; details: 120 h, read-out: inhibition of Fumonisin FB1 production
Phakopsora pachyrhizi = assay: In vivo preventive test on Phakopsora pachyrhizi (soybean rust); details: 50 ppm of active ingredient, evaluated 11 days after inoculation
Procedure: Solvent: 28.5 parts by weight of acetone
Emulsifier: 1.5 parts by weight of polyoxyethylene alkyl phenyl ether
One day after spraying, the plants are inoculated with an aqueous spore suspension of the causal agent of soybean rust (Phakopsora pachyrhizi).
The test is evaluated 11 days after the inoculation.

| Structure (SMILES) | inhibition at 50 µM (Aspergillus parasiticus) [%] | chromatographic logP [1] | disease control (Sphaerotheca fuliginea) [%] | disease control (Fusarium nivale) | further results |
| --- | --- | --- | --- | --- | --- |
| Cn1nc(C(F)F)c(C(=O)N(Cc2ccccc2[Si](C)(C)C)C2CC2)c1F [Example 3, N-cyclopropyl-3-(difluoromethyl)-5-fluoro-1-methyl-N-[2-(trimethylsilyl)benzyl]-1H-pyrazole-4-carboxamide] | > 80 | 4.36 |  |  |  |
| Cn1nc(C(F)F)c(C(=S)N(Cc2ccccc2[Si](C)(C)C)C2CC2)c1F [Example 38, N-cyclopropyl-3-(difluoromethyl)-5-fluoro-1-methyl-N-[2-(trimethylsilyl)benzyl]-1H-pyrazole-4-carbothioamide] | > 80 | 4.94 | 100 |  |  |
| CC(c1cccc2ccccc12)N(C(=O)c1c(C(F)F)nn(C)c1F)C1CC1 (centres unmarked) [N-cyclopropyl-3-(difluoromethyl)-5-fluoro-1-methyl-N-[1-(1-naphthyl)ethyl]-1H-pyrazole-4-carboxamide, reference compound] |  |  |  | less than 95% | disease control (Puccinia triticina): less than 85% |
| CC(C)c1ccccc1CN(C(=O)c1c(C(F)F)nn(C)c1F)C1CC1 [Example 6] |  |  | 100 | 100% | nematicidal activity (% reduction of galls vs untreated control) (Meloidogyne incognita): 80%; logP ([1]; HPLC, reversed-phase column (C 18), 40° C., 0.1% aqueous formic acid and acetonitrile, linear gradient 10% to 90% acetonitrile): 3.35; mortality in % (Tetranychus urticae): 80% |
| Cn1nc(C(F)F)c(C(=O)N(Cc2ncc(C(F)(F)F)cc2Cl)C2CC2)c1F [N-{[3-chloro-5-(trifluoromethyl)pyridin-2-yl]methyl}-N-cyclopropyl-3-(difluoromethyl)-5-fluoro-1-methyl-1H-pyrazole-4-carboxamide] |  |  |  |  | inhibition at 50 µM (Fusarium proliferatum): < 55% |
| Cc1nn(C)c(F)c1C(=S)N(Cc1ccccc1[Si](C)(C)C)C1CC1 [N-cyclopropyl-5-fluoro-1,3-dimethyl-N-[2-(trimethylsilyl)benzyl]-1H-pyrazole-4-carbothioamide] |  |  |  |  | disease control (Phakopsora pachyrhizi): less than 85% |
